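Grown in 96-well plates, cells were treated for 48 hours with each compound at five concentrations. Insufficient inhibition: endpoint recorded as highest concentration tested. Abbreviation: GI50, concentration required for 50% inhibition of growth.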 The source made the active and inactive calls. Cut-off read from the data, not from the text of the source: active = GI50 up to about 1.1 µM and inactive = higher.
Columns and labels:
Experiment in all cases: DTP human tumour cell line panel, 48 h
MCF7 = test system: MCF7
UACC-257 = test system: UACC-257
HCT-15 = test system: HCT-15
SF-268 = test system: SF-268
BT-549 = test system: BT-549
OVCAR-5 = test system: OVCAR-5
CAKI-1 = test system: CAKI-1
NCI-H226 = test system: NCI-H226
NCI/ADR-RES = test system: NCI/ADR-RES
RPMI-8226 = test system: RPMI-8226
T47D = test system: T47D
UO-31 = test system: UO-31
KM12 = test system: KM12
786-0 = test system: 786-0
CCRF-CEM = test system: CCRF-CEM
PC-3 = test system: PC-3
HT-29 = test system: HT-29
A549 = test system: A549
NCI-H23 = test system: NCI-H23
EKVX = test system: EKVX
COLO 205 = test system: COLO 205
SNB-19 = test system: SNB-19
Hs-578T = test system: Hs-578T
HCT-116 = test system: HCT-116
SK-MEL-2 = test system: SK-MEL-2
SNB-75 = test system: SNB-75
M14 = test system: M14
OVCAR-3 = test system: OVCAR-3
A498 = test system: A498
HOP-62 = test system: HOP-62
SK-MEL-5 = test system: SK-MEL-5
K562 = test system: K562
IGROV-1 = test system: IGROV-1
MOLT-4 = test system: MOLT-4
DU-145 = test system: DU-145
ACHN = test system: ACHN
MDA-N = test system: MDA-N
TK-10 = test system: TK-10
MDA-MB-231 = test system: MDA-MB-231
HL-60 = test system: HL-60
SN12C = test system: SN12C
SF-539 = test system: SF-539
NCI-H460 = test system: NCI-H460
SF-295 = test system: SF-295
OVCAR-8 = test system: OVCAR-8
UACC-62 = test system: UACC-62
HCC 2998 = test system: HCC 2998
SK-OV-3 = test system: SK-OV-3
RXF 393 = test system: RXF 393
MDA-MB-435 = test system: MDA-MB-435
SK-MEL-28 = test system: SK-MEL-28
U-251 = test system: U-251
OVCAR-4 = test system: OVCAR-4
HOP-92 = test system: HOP-92
SW-620 = test system: SW-620
LOX IMVI = test system: LOX IMVI
Malme-3M = test system: Malme-3M
SR = test system: SR
NCI-H522 = test system: NCI-H522

Structure (SMILES): CCOC(=O)c1c(NS(=O)(=O)c2ccc(C)cc2)sc2c1CCCC2
- GI50 (MCF7): 24.4 µM (inactive)
- GI50 (UACC-257): 35 µM (inactive)
- GI50 (HCT-15): 15.9 µM
- GI50 (SF-268): 26.1 µM (inactive)
- GI50 (BT-549): 31.7 µM (inactive)
- GI50 (OVCAR-5): 65.3 µM (inactive)
- GI50 (CAKI-1): 38.9 µM (inactive)
- GI50 (NCI-H226): 40.8 µM (inactive)
- GI50 (NCI/ADR-RES): 27 µM (inactive)
- GI50 (RPMI-8226): 10.2 µM (inactive)
- GI50 (T47D): 43.3 µM (inactive)
- GI50 (UO-31): 21.1 µM (inactive)
- GI50 (KM12): 19 µM (inactive)
- GI50 (786-0): 35.2 µM (inactive)
- GI50 (CCRF-CEM): 12.1 µM (inactive)
- GI50 (PC-3): 16.2 µM (inactive)
- GI50 (HT-29): 24.2 µM (inactive)
- GI50 (A549): 24.5 µM (inactive)
- GI50 (NCI-H23): 18.1 µM (inactive)
- GI50 (EKVX): 32.6 µM (inactive)
- GI50 (COLO 205): 19 µM (inactive)
- GI50 (SNB-19): 35.1 µM (inactive)
- GI50 (Hs-578T): 26.9 µM (inactive)
- GI50 (HCT-116): 21.4 µM (inactive)
- GI50 (SK-MEL-2): 17.3 µM (inactive)
- GI50 (SNB-75): 27.1 µM (inactive)
- GI50 (M14): 35.8 µM (inactive)
- GI50 (OVCAR-3): 15 µM (inactive)
- GI50 (A498): 36.1 µM (inactive)
- GI50 (HOP-62): 23.2 µM (inactive)
- GI50 (SK-MEL-5): 31.8 µM (inactive)
- GI50 (K562): 20.6 µM (inactive)
- GI50 (IGROV-1): 27.2 µM (inactive)
- GI50 (MOLT-4): 37.6 µM (inactive)
- GI50 (DU-145): 33.6 µM (inactive)
- GI50 (ACHN): 29.9 µM (inactive)
- GI50 (MDA-N): 42.7 µM (inactive)
- GI50 (TK-10): 28.4 µM (inactive)
- GI50 (MDA-MB-231): 22.5 µM (inactive)
- GI50 (HL-60): 42.7 µM (inactive)
- GI50 (SN12C): 31.8 µM (inactive)
- GI50 (SF-539): 29.9 µM (inactive)
- GI50 (NCI-H460): 24.3 µM (inactive)
- GI50 (SF-295): 28 µM (inactive)
- GI50 (OVCAR-8): 35.7 µM (inactive)
- GI50 (UACC-62): 17.5 µM (inactive)

Structure (SMILES): O=C(c1ccccc1)N(CCCCNC(=O)C(F)(F)F)CCCNC(=O)C(F)(F)F
- GI50 (HCC 2998): > 100 µM (inactive)
- GI50 (SK-OV-3): > 100 µM (inactive)
- GI50 (MCF7): > 100 µM (inactive)
- GI50 (UACC-257): > 100 µM (inactive)
- GI50 (HCT-15): > 100 µM
- GI50 (SF-268): > 100 µM (inactive)
- GI50 (BT-549): > 100 µM (inactive)
- GI50 (RXF 393): > 100 µM (inactive)
- GI50 (OVCAR-5): > 100 µM (inactive)
- GI50 (CAKI-1): > 100 µM (inactive)
- GI50 (MDA-MB-435): > 100 µM (inactive)
- GI50 (NCI-H226): > 100 µM (inactive)
- GI50 (NCI/ADR-RES): > 100 µM (inactive)
- GI50 (RPMI-8226): > 100 µM (inactive)
- GI50 (T47D): > 100 µM (inactive)
- GI50 (UO-31): > 100 µM (inactive)
- GI50 (SK-MEL-28): > 100 µM (inactive)
- GI50 (KM12): > 100 µM (inactive)
- GI50 (786-0): > 100 µM (inactive)
- GI50 (U-251): > 100 µM (inactive)
- GI50 (CCRF-CEM): > 100 µM (inactive)
- GI50 (HT-29): > 100 µM (inactive)
- GI50 (A549): > 100 µM (inactive)
- GI50 (NCI-H23): > 100 µM (inactive)
- GI50 (OVCAR-4): > 100 µM (inactive)
- GI50 (EKVX): > 100 µM (inactive)
- GI50 (COLO 205): > 100 µM (inactive)
- GI50 (SNB-19): > 100 µM (inactive)
- GI50 (Hs-578T): > 100 µM (inactive)
- GI50 (HOP-92): > 100 µM (inactive)
- GI50 (HCT-116): > 100 µM (inactive)
- GI50 (SNB-75): 32.6 µM (inactive)
- GI50 (M14): > 100 µM (inactive)
- GI50 (SW-620): > 100 µM (inactive)
- GI50 (A498): > 100 µM (inactive)
- GI50 (SK-MEL-5): > 100 µM (inactive)
- GI50 (K562): > 100 µM (inactive)
- GI50 (IGROV-1): > 100 µM (inactive)
- GI50 (MOLT-4): > 100 µM (inactive)
- GI50 (DU-145): > 100 µM (inactive)
- GI50 (ACHN): > 100 µM (inactive)
- GI50 (MDA-N): > 100 µM (inactive)
- GI50 (TK-10): > 100 µM (inactive)
- GI50 (MDA-MB-231): > 100 µM (inactive)
- GI50 (LOX IMVI): > 100 µM (inactive)
- GI50 (HL-60): > 100 µM (inactive)
- GI50 (SN12C): > 100 µM (inactive)
- GI50 (SF-539): > 100 µM (inactive)
- GI50 (Malme-3M): > 100 µM (inactive)
- GI50 (SR): 0.94 µM (active)
- GI50 (NCI-H460): > 100 µM (inactive)
- GI50 (SF-295): > 100 µM (inactive)
- GI50 (OVCAR-8): > 100 µM (inactive)
- GI50 (UACC-62): > 100 µM (inactive)
- GI50 (NCI-H522): > 100 µM (inactive)

Structure (SMILES): CC1=C(C(=O)OC23CC4CC(CC(C4)C2)C3)C(c2ccccc2OC(F)F)C(C(=O)OC23CC4CC(CC(C4)C2)C3)=C(C)N1 (stereo unspecified)
- GI50 (HCC 2998): > 100 µM (inactive)
- GI50 (SK-OV-3): > 100 µM (inactive)
- GI50 (MCF7): 74.6 µM (inactive)
- GI50 (UACC-257): > 100 µM (inactive)
- GI50 (HCT-15): > 100 µM
- GI50 (SF-268): > 100 µM (inactive)
- GI50 (BT-549): > 100 µM (inactive)
- GI50 (RXF 393): > 100 µM (inactive)
- GI50 (OVCAR-5): > 100 µM (inactive)
- GI50 (CAKI-1): > 100 µM (inactive)
- GI50 (MDA-MB-435): > 100 µM (inactive)
- GI50 (NCI-H226): > 100 µM (inactive)
- GI50 (NCI/ADR-RES): > 100 µM (inactive)
- GI50 (RPMI-8226): > 100 µM (inactive)
- GI50 (T47D): > 100 µM (inactive)
- GI50 (UO-31): > 100 µM (inactive)
- GI50 (SK-MEL-28): > 100 µM (inactive)
- GI50 (KM12): > 100 µM (inactive)
- GI50 (786-0): > 100 µM (inactive)
- GI50 (U-251): > 100 µM (inactive)
- GI50 (CCRF-CEM): > 100 µM (inactive)
- GI50 (HT-29): > 100 µM (inactive)
- GI50 (A549): > 100 µM (inactive)
- GI50 (NCI-H23): > 100 µM (inactive)
- GI50 (OVCAR-4): > 100 µM (inactive)
- GI50 (EKVX): > 10 µM (inactive)
- GI50 (COLO 205): > 100 µM (inactive)
- GI50 (SNB-19): > 100 µM (inactive)
- GI50 (Hs-578T): 68.2 µM (inactive)
- GI50 (HOP-92): > 100 µM (inactive)
- GI50 (HCT-116): > 100 µM (inactive)
- GI50 (SK-MEL-2): > 100 µM (inactive)
- GI50 (SNB-75): 43.7 µM (inactive)
- GI50 (M14): > 100 µM (inactive)
- GI50 (SW-620): > 100 µM (inactive)
- GI50 (OVCAR-3): 50.5 µM (inactive)
- GI50 (A498): > 100 µM (inactive)
- GI50 (HOP-62): > 100 µM (inactive)
- GI50 (SK-MEL-5): > 100 µM (inactive)
- GI50 (IGROV-1): > 100 µM (inactive)
- GI50 (MOLT-4): 63.7 µM (inactive)
- GI50 (DU-145): > 100 µM (inactive)
- GI50 (MDA-N): > 100 µM (inactive)
- GI50 (MDA-MB-231): > 100 µM (inactive)
- GI50 (LOX IMVI): > 100 µM (inactive)
- GI50 (HL-60): > 100 µM (inactive)
- GI50 (SN12C): > 100 µM (inactive)
- GI50 (SF-539): > 100 µM (inactive)
- GI50 (Malme-3M): > 100 µM (inactive)
- GI50 (SR): > 100 µM (inactive)
- GI50 (NCI-H460): > 100 µM (inactive)
- GI50 (SF-295): > 100 µM (inactive)
- GI50 (OVCAR-8): > 100 µM (inactive)
- GI50 (UACC-62): > 100 µM (inactive)
- GI50 (NCI-H522): 75.2 µM (inactive)

— ChEMBL document CHEMBL1201862, “PubChem BioAssay data set” (2004)
